We go through one compound from PubChem BioAssay AID1259407 (Chemical Carcinogenesis Research Information System (CCRIS), 2018).

The source made the active and inactive calls. The rule behind the calls is not given here.

In the data set the test system is CCRIS mutagenicity, Ames/micronucleus/aberration tests. Description: CCRIS mutagenicity studies.

Take `CN1CCC[C@H]1c1cccnc1`: the mutagenic call (End Point: IN VITRO MICRONUCLEUS, Test System: HUMAN GINGIVAL FIBROBLASTS, Metabolic Activation: NONE) is “active; positive”; the mutagenic call (End Point: In vivo micronucleus, Test System: Bone marrow polychromatic erythrocytes, Species: Mouse, Strain/Sex: Swiss/Female, Route: Oral) is “inactive; negative”; the mutagenic call (Test System: AMES SALMONELLA TYPHIMURIUM, Strain/Indicator: TA97, Metabolic Activation: NONE, Method: STANDARD PLATE) is “inactive; negative”; the mutagenic call (Test System: AMES SALMONELLA TYPHIMURIUM, Strain/Indicator: TA97, Metabolic Activation: RAT, LIVER, S-9, AROCLOR 1254, Method: STANDARD PLATE) is “inactive; negative”; the mutagenic call (Test System: AMES SALMONELLA TYPHIMURIUM, Strain/Indicator: TA98, Metabolic Activation: NONE, Method: PREINCUBATION) is “inactive; negative”; the mutagenic call (Test System: AMES SALMONELLA TYPHIMURIUM, Strain/Indicator: TA98, Metabolic Activation: NONE, Method: STANDARD PLATE) is “inactive; negative”. Further, the mutagenic call is, setting by setting: (Test System: AMES SALMONELLA TYPHIMURIUM, Strain/Indicator: TA98, Metabolic Activation: RAT, LIVER, S-9, AROCLOR 1254 (5%), Method: PREINCUBATION) “inactive; negative”; (Test System: AMES SALMONELLA TYPHIMURIUM, Strain/Indicator: TA98, Metabolic Activation: RAT, LIVER, S-9, AROCLOR 1254, Method: STANDARD PLATE) “inactive; negative”; (Test System: AMES SALMONELLA TYPHIMURIUM, Strain/Indicator: TA100, Metabolic Activation: NONE, Method: PREINCUBATION) “inactive; negative”; (Test System: AMES SALMONELLA TYPHIMURIUM, Strain/Indicator: TA100, Metabolic Activation: NONE, Method: STANDARD PLATE) “inactive; negative”; (Test System: AMES SALMONELLA TYPHIMURIUM, Strain/Indicator: TA100, Metabolic Activation: RAT, LIVER, S-9, AROCLOR 1254 (5%), Method: PREINCUBATION) “inactive; negative”; (Test System: AMES SALMONELLA TYPHIMURIUM, Strain/Indicator: TA100, Metabolic Activation: RAT, LIVER, S-9, AROCLOR 1254, Method: STANDARD PLATE) “inactive; negative”. The mutagenic call was “inactive; negative” (Test System: AMES SALMONELLA TYPHIMURIUM, Strain/Indicator: TA1535, Metabolic Activation: NONE, Method: PREINCUBATION); “inactive; negative” (Test System: AMES SALMONELLA TYPHIMURIUM, Strain/Indicator: TA1535, Metabolic Activation: RAT, LIVER, S-9, AROCLOR 1254 (5%), Method: PREINCUBATION); “inactive; negative” (Test System: AMES SALMONELLA TYPHIMURIUM, Strain/Indicator: TA1537, Metabolic Activation: NONE, Method: PREINCUBATION); “inactive; negative” (Test System: AMES SALMONELLA TYPHIMURIUM, Strain/Indicator: TA1537, Metabolic Activation: RAT, LIVER, S-9, AROCLOR 1254 (5%), Method: PREINCUBATION); “inactive; negative” (Test System: AMES SALMONELLA TYPHIMURIUM, Strain/Indicator: TA1538, Metabolic Activation: NONE, Method: PREINCUBATION); “inactive; negative” (Test System: AMES SALMONELLA TYPHIMURIUM, Strain/Indicator: TA1538, Metabolic Activation: RAT, LIVER, S-9, AROCLOR 1254 (5%), Method: PREINCUBATION).
